Drawing on PubChem BioAssay (NCI), this text covers TGI and GI50 for eight compounds.

Several values for one entry are separate records, joined by “and”; a condition that tells them apart may be missing. Equal values may be shown once.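 In this assay, cells in 96-well plates receive the compound at five concentrations for 48 hours. Endpoints are linearly interpolated between the surrounding concentrations. At the GI50, growth is halved. The concentration for full growth arrest is given as TGI.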

What all share (experiment): DTP human tumour cell line panel, 48 h
The subject of test [1] is MALME-3M melanoma.
Test [2] has as its system CCRF-CEM leukemia.
For test [3], the system named is MDA-MB-231 breast.
For test [4], the system named is RPMI-8226 leukemia.
Test [5] relates to 786-0 renal.
In test [6] the test system is SN12C renal.
Test [7] concerns NCI-H23 lung.
Test [8] deals with U251 CNS.
Test [9] has as its system ACHN renal.
Test [10] deals with MCF7 breast.

In general, TGI refers to the concentration giving total growth inhibition. In the case of `COC(=O)C1(N2CCOCC2)CCC([C@@H](c2ccccc2)C(C)[N+](=O)[O-])C1` (stereo partly drawn), the total growth inhibition concentration (TGI) in test [1] was over 100 µM; in test [2], 20.3 µM; in test [3], over 100 µM; in test [4] it was 42.9 µM; in test [5] it was over 100 µM; in test [6], over 100 µM. Further, the TGI was over 100 µM in [7], over 100 µM in test [8], over 100 µM in test [9] and 54.5 µM in test [10].
Broadly, the GI50 is the concentration giving 50% growth inhibition. Regarding `COc1ccc(C2CC(=O)Nc3c2c(C)nn3-c2nc3ccccc3[nH]2)cc1OC` (stereo not drawn), the GI50 in test [1] is 4.94 µM; in test [2], 1.62 µM; in [3], 4.39 µM; in [4], 3.08 µM; in [5], 5.2 µM; in test [6], 5.96 µM. The GI50 in test [7] was 3.66 µM; in [8], 4.58 µM; in [9], 4.45 µM; in test [10] it was 3.78 µM. Besides, the TGI in [1] was 29 µM; in [2], over 96.3 µM; in test [3] it was 21 µM; in [4], 8.68 µM; in test [5], 24.8 µM; in test [6] it was 35.5 µM. Moreover, the TGI in [7] is 22.1 µM; in [8] it was 19.7 µM; in test [9] it was 34.1 µM; in [10] it was over 100 µM.
For the compound `Cc1cc(C(=O)NOCCO)c(Nc2ccc(I)cc2F)n(C)c1=O`, the GI50 in test [1] was under 0.01 µM; in test [2] it was over 100 µM; in test [3], 0.0075 µM and < 0.01 µM; in test [4], > 10 µM and 37.9 µM; in test [5] it was over 83.9 µM; in test [6], 12.3 µM. Also, the GI50 in [7] was 0.0237 µM and 0.0131 µM; in test [8], > 10 µM and 2.81 µM; in [10], over 100 µM. Besides, the TGI in [1] was 0.0115 µM and < 0.01 µM; in test [2], over 100 µM; in test [3] it was over 100 µM; in test [4] it was over 100 µM; in [5], over 100 µM; in [6], over 100 µM. Besides, the TGI in [7], in test [8], in test [9] and in test [10] was over 100 µM throughout.
Consider `CN(N=O)N1C(=O)SCC(c2ccccc2)(c2ccccc2)C1=O`, for which the TGI in [1] is over 100 µM; in [2], over 100 µM; in test [3] it was over 100 µM; in test [4], 67.6 µM; in [5], over 100 µM; in [6], over 100 µM. Further, the TGI in [7] was over 100 µM; in [8] it was over 100 µM; in test [9], over 100 µM; in [10] it was 62.2 µM.
With `CN1CCN(CCCn2c3c(sc4ncccc43)c(=O)n3nnc(-c4ccccc4)c23)CC1`, the GI50 in [1] was 6.38 µM; in test [2], 1.57 µM; in test [3], 1.59 µM; in test [4] it was 2.08 µM; in test [5], 5.81 µM; in test [6], 14.5 µM. Besides, the GI50 in test [7] was 1.97 µM; in [8], 1.86 µM; in test [9], 1.54 µM; in [10], 1.72 µM. Further, the TGI in test [1] worked out at 11.8 µM; in [2], 4.08 µM; in [3] it was 3.04 µM; in [4], 5.3 µM; in test [5], 10.7 µM; in test [6], 28.8 µM. In addition, the TGI in test [7] was found to be 4.38 µM; in test [8], 3.3 µM; in [9], 3.04 µM; in test [10], 3.16 µM.
With `OCC1OC(n2cnc3cc(Cl)c(Cl)cc32)C(O)C1O` (stereo not drawn), the GI50 in test [1] was 25.5 µM; in [2], 38.8 µM; in test [3] it was 21.2 µM; in test [4], 30 µM; in test [5] it was 23.6 µM; in test [6], 20.6 µM. Besides, the GI50 was 18.8 µM in [7], 13.8 µM in test [8], 12.7 µM in [9] and 21.5 µM in test [10]. Further, the TGI in [1] was 67.5 µM; in [2] it was over 100 µM; in [3] it was 60.1 µM; in test [4], over 72.5 µM; in test [5], over 68.3 µM; in test [6], 58.4 µM. The TGI was 42.3 µM in test [7], 37.5 µM in test [8], 34.6 µM in test [9] and 75.9 µM in test [10].
Turning to `CCN1C(=O)N(CC)C2C1NN=c1s/c(=C\c3ccc(Br)cc3)c(=O)n12` (stereo not drawn), the GI50 in [1] was 2.39 µM; in test [2] it was 0.246 µM; in [3] it was 0.306 µM; in test [4], 0.269 µM; in [5], 0.163 µM; in test [6], 0.512 µM. In addition, the GI50 in test [7] is 0.422 µM; in [8] it was 0.18 µM; in test [9] it was 0.249 µM; in test [10], 0.0443 µM. Further, the TGI in [1] was over 100 µM; in test [2], over 33.1 µM; in test [3], over 76.6 µM; in test [5], over 100 µM; in test [6], over 100 µM; in [7], over 100 µM. Further, the values for the TGI in test [8], in test [9] and in [10] were over 54.2 µM, over 100 µM and over 100 µM, respectively.
Consider `C=C1[C@H](O)C[C@@H](C(C)C(O)CC=C(C)C)[C@@H](O)[C@@H]2C(C)=CC[C@@H]12` (stereo partly drawn), for which the GI50 in [1] was over 100 µM; in test [2], 55.6 µM; in test [3], over 100 µM; in test [4] it was over 100 µM; in test [5], over 100 µM; in test [6] it was over 100 µM. Also, the GI50 in test [7], in test [8], in test [9] and in [10] was over 100 µM in each case. Further, the TGI in test [1], in test [2], in test [3], in test [4], in test [5] and in test [6] was over 100 µM in each case. Further, the TGI in test [7], in test [8], in test [9] and in test [10] was over 100 µM in each case.
